Data from US11773109B2, “Composition for hardening soft tissue” (The Catholic University of Korea Industry—Academic …, priority 2016, dated 2023).

Legend:
pancreas of mice [1] = assay: Hardness (elastic modulus) of the mouse pancreas after treatment, hardness meter (Venustron); format: in vivo; conditions: mouse pancreas treated with 1 mM of compound; compared to control (PBS / untreated); result in words
Procedure: The measurement of the hardness according to the present invention is performed using a hardness meter, and measurement of the hardness of the pancreas is performed by measuring elastic modulus (EM) based on the Hooke's law and the Hertz's contact stress theory. The EM is a measure of the stiffness of an elastic material, and is expressed as the ratio of “the stress along the axis” and “the total strain along the axis within the range of the stress” by the Hooke's law.
(§1) More specifically, three mice were treated with 1 mM of each of the antibiotics shown above, and three mice were treated with phosphate buffered saline (PBS) as a control.
(1) Measurement of Hardness
In order to measure the resistance of the pancreas using a hardness meter, the elastic modulus (EM) of the dissected pancreas was measured using Venustron (Axiom, Koriyama, Japan) based on the Hooke's law and the Hertz's contract stress theory, and the resistance of the pancreas was calculated using the following equation: […]
(F, force; v, Poisson's ratio; t, variant of compression; r, the diameter of a rigid spherical probe that presses an object vertically)

pancreas of mice [2] = assay: Tension (suture-holding capacity) of the mouse pancreas after treatment, Newton dynamometer; format: in vivo; conditions: mouse pancreas treated with 1 mM of compound; for change in the tension of the pancreas compared to the control: compared to control (PBS / untreated), result in words; for response vs control in vivo at 1000 µM: fold of control, read-out: increase of the tension of the pancreas compared to the control
Procedure: Specifically, it means a force which occurs in an organ in response to an external force exerted by stretching or pulling action. The measurement of the tension according to the present invention is performed using a dynamometer. More specifically, the tension is determined by measuring suture-holding capacity using a Newton dynamometer. At this time, the tension is calculated by adding the weight of the tissue.
as §1
(2) Measurement of Tensile
The tension of the pancreas was measured using a dynamometer. Specifically, a pancreatic fragment having a size of 1×1×1.5 cm was prepared, and then silk 4-0 suture was passed through the tissue to form a knob, and suture-holding capacity was measured using a Newton dynamometer. At this time, the tension was calculated by adding the weight of the tissue.

Compound | change in the hardness of the pancreas compared to the control (pancreas of mice [1]) | change in the tension of the pancreas compared to the control (pancreas of mice [2]) | response vs control in vivo at 1000 µM (pancreas of mice [2])
Cc1cc(O)c2ccccc2n1 [KRP-00006, 4-hydroxy-2-methylquinoline] | increased both the hardness and tension | increased both the hardness and tension | –
O=C(O)c1cnc2cc(C(F)(F)F)ccc2c1O [KRP-00009, 4-hydroxy-7-trifluoromethyl-3-quinolinecarboxylic acid] | increased both the hardness and tension | increased both the hardness and tension | ≥ 150%
Oc1ccnc2ccccc12 [KRP-00012, 4-hydroxyquinoline] | increased both the hardness and tension | increased both the hardness and tension | ≥ 150%
Oc1ccc2ncccc2c1 [KRP-00013, 6-hydroxyquinoline] | increased both the hardness and tension | increased both the hardness and tension | ≥ 150%
Oc1ccc2ccccc2n1 [KRP-00014, 2-hydroxyquinoline] | increased both the hardness and tension | increased both the hardness and tension | ≥ 150%
O=C(O)c1ccc2cccnc2c1O [KRP-00016, 8-hydroxyquinoline-7-carboxylic acid] | increased both the hardness and tension | increased both the hardness and tension | ≥ 150%
